Some test systems named below: HOP-62 NSCLC; A498 renal; NCI/ADR-RES ovarian; HT29 colon; SNB-19 CNS; HL-60(TB) leukemia; SK-MEL-5 melanoma; MOLT-4 leukemia; COLO 205 colon; HCT-116 colon.
What all share (assay): NCI-60 cell line screen, 48 h

Experimental findings from PubChem BioAssay (NCI) are described below.

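Where inhibition never reached the appropriate level, the endpoint shown equals the highest concentration tested. Otherwise, values were interpolated linearly from a five-concentration, 48-hour dose response in 96-well plates. GI50 marks 50% less growth. TGI: concentration producing complete growth inhibition.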 A value given as a limit tells only on which side of the number the result lay.

With `CCN(CC)CCCCCCCCNc1c2ccc(Cl)cc2nc2ccc(OC)cc12`, the GI50 is 1.4 µM in the assay with HOP-62 NSCLC; 1.41 µM in the assay on A498 renal; 2.46 µM with NCI/ADR-RES ovarian; 0.597 µM in the assay with HT29 colon; 1.81 µM in the assay with SNB-19 CNS; 2.04 µM in the assay with HL-60(TB) leukemia. Further, the GI50 is 1.54 µM in the assay on SK-MEL-5 melanoma, 0.951 µM in the assay with MOLT-4 leukemia, 1.43 µM in the assay on COLO 205 colon and 1.36 µM in the assay on HCT-116 colon. Moreover, the TGI in the assay on HOP-62 NSCLC stood at 3.13 µM; in the assay on A498 renal, 2.78 µM; with NCI/ADR-RES ovarian it was 10.3 µM; in the assay on HT29 colon it was 2.25 µM; in the assay with SNB-19 CNS, 4.63 µM; in the assay with HL-60(TB) leukemia, 4.08 µM. For the same compound, the TGI came out at 2.89 µM in the assay with SK-MEL-5 melanoma, 4.68 µM in the assay with MOLT-4 leukemia, 2.88 µM in the assay with COLO 205 colon and 3.14 µM in the assay on HCT-116 colon.
Take `Cc1c(CNc2ccc(Cl)c(C(=O)NC(CC(=O)O)C(=O)O)c2)ccc2nc(N)nc(N)c12` (centres undefined): the GI50 in the assay on HOP-62 NSCLC is 0.557 µM; with A498 renal, 24.9 µM; with SNB-19 CNS, 0.382 µM; with SK-MEL-5 melanoma, 0.36 µM; in the assay on COLO 205 colon, 114 µM. Also, the TGI in the assay on A498 renal is 680 µM; in the assay on NCI/ADR-RES ovarian, over 1000 µM; in the assay on HT29 colon, over 1000 µM; in the assay on SNB-19 CNS, over 1000 µM; in the assay with HL-60(TB) leukemia, over 1000 µM; with SK-MEL-5 melanoma it was over 1000 µM. The TGI in the assay with MOLT-4 leukemia, with COLO 205 colon and with HCT-116 colon was over 1000 µM each time.
`CCNc1nc(N)c(C(=O)c2ccc(Cl)cc2)s1`: the TGI was over 100 µM with HOP-62 NSCLC; 70.3 µM in the assay with A498 renal; over 100 µM in the assay with NCI/ADR-RES ovarian; over 100 µM with HT29 colon; 58.8 µM with SNB-19 CNS; 36 µM with HL-60(TB) leukemia. Also, the TGI in the assay on SK-MEL-5 melanoma is over 100 µM; with MOLT-4 leukemia it was over 100 µM; in the assay on COLO 205 colon it was 47 µM; with HCT-116 colon, over 100 µM.
Take `CN(C(=O)C12C3C4(C(=O)O)C1(C(=O)N(C)C(C)(C)C)C1C2(C(=O)O)C3(C(=O)N(C)C(C)(C)C)C14C(=O)N(C)C(C)(C)C)C(C)(C)C` (centres undefined): the TGI in the assay on HOP-62 NSCLC, with A498 renal, with NCI/ADR-RES ovarian, with HT29 colon, with SNB-19 CNS and in the assay with HL-60(TB) leukemia was over 100 µM in each case. For the same compound, the TGI in the assay with SK-MEL-5 melanoma, in the assay with MOLT-4 leukemia, in the assay on COLO 205 colon and in the assay on HCT-116 colon was over 100 µM throughout.
In the case of `COC(=O)c1c(OC(C)=O)ccc2c1c1c(OC(C)=O)c3ccccc3c(OC(C)=O)c1n2Cc1cc(OC)cc(OC)c1`, the TGI in the assay with HOP-62 NSCLC is over 100 µM; with A498 renal, 89.8 µM; with NCI/ADR-RES ovarian, over 100 µM; in the assay on HT29 colon, over 100 µM; with SNB-19 CNS it was over 100 µM; with HL-60(TB) leukemia, over 100 µM. Besides, the TGI in the assay with SK-MEL-5 melanoma is 24.3 µM; in the assay on MOLT-4 leukemia it was over 100 µM; with COLO 205 colon, over 100 µM; in the assay with HCT-116 colon, 78.3 µM.
For `CC1(CCCC2(C)CCNC2=O)OCCO1` (centres undefined), the TGI in the assay with HOP-62 NSCLC, with A498 renal, in the assay with NCI/ADR-RES ovarian, in the assay with HT29 colon, in the assay on SNB-19 CNS and in the assay on HL-60(TB) leukemia was over 10 µM in each case. For the same compound, the TGI with SK-MEL-5 melanoma, with MOLT-4 leukemia, with COLO 205 colon and in the assay with HCT-116 colon was over 10 µM throughout.
